In PubChem BioAssay (NCI):
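Dose response: 5 concentrations. Exposure: 48 h. Format: 96-well plates. Endpoint: linear interpolation; highest concentration if not reached. GI50 is the concentration that inhibits growth by half. TGI: total growth inhibition.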

Tests used:
Test in all cases: DTP human tumour cell line panel, 48 h
NCI-H226 lung = test system: NCI-H226 lung
HOP-62 NSCLC = test system: HOP-62 NSCLC
SNB-75 CNS = test system: SNB-75 CNS
HL-60(TB) leukemia = test system: HL-60(TB) leukemia
NCI/ADR-RES ovarian = test system: NCI/ADR-RES ovarian
TK-10 renal = test system: TK-10 renal
MDA-MB-435 = test system: MDA-MB-435
MDA-MB-231 breast = test system: MDA-MB-231 breast
OVCAR-5 ovarian = test system: OVCAR-5 ovarian
UACC-62 melanoma = test system: UACC-62 melanoma
SK-MEL-2 melanoma = test system: SK-MEL-2 melanoma
HS 578T breast = test system: HS 578T breast
SF-295 CNS = test system: SF-295 CNS
DU-145 prostate = test system: DU-145 prostate
HCT-116 colon = test system: HCT-116 colon
NCI-H522 lung = test system: NCI-H522 lung
COLO 205 colon = test system: COLO 205 colon
CAKI-1 renal = test system: CAKI-1 renal
HCC-2998 colon = test system: HCC-2998 colon
SW-620 colon = test system: SW-620 colon
SF-268 CNS = test system: SF-268 CNS
SR leukemia = test system: SR leukemia
MALME-3M melanoma = test system: MALME-3M melanoma
CCRF-CEM leukemia = test system: CCRF-CEM leukemia
IGROV1 ovarian = test system: IGROV1 ovarian
786-0 renal = test system: 786-0 renal
M14 melanoma = test system: M14 melanoma
U251 CNS = test system: U251 CNS
NCI-H23 lung = test system: NCI-H23 lung
KM12 colon = test system: KM12 colon
SF-539 CNS = test system: SF-539 CNS
HT29 colon = test system: HT29 colon
UO-31 renal = test system: UO-31 renal
K-562 leukemia = test system: K-562 leukemia
OVCAR-8 ovarian = test system: OVCAR-8 ovarian
HCT-15 colon = test system: HCT-15 colon
MCF7 breast = test system: MCF7 breast
SN12C renal = test system: SN12C renal
SK-MEL-5 melanoma = test system: SK-MEL-5 melanoma
UACC-257 melanoma = test system: UACC-257 melanoma
A498 renal = test system: A498 renal
MOLT-4 leukemia = test system: MOLT-4 leukemia
RXF 393 renal = test system: RXF 393 renal
BT-549 breast = test system: BT-549 breast
SK-OV-3 ovarian = test system: SK-OV-3 ovarian
OVCAR-3 ovarian = test system: OVCAR-3 ovarian
T-47D breast = test system: T-47D breast
EKVX NSCLC = test system: EKVX NSCLC
ACHN renal = test system: ACHN renal
RPMI-8226 leukemia = test system: RPMI-8226 leukemia
SNB-19 CNS = test system: SNB-19 CNS
HOP-92 NSCLC = test system: HOP-92 NSCLC
OVCAR-4 ovarian = test system: OVCAR-4 ovarian
SK-MEL-28 melanoma = test system: SK-MEL-28 melanoma
LOX IMVI melanoma = test system: LOX IMVI melanoma
PC-3 prostate = test system: PC-3 prostate
A549 NSCLC = test system: A549 NSCLC
NCI-H460 lung = test system: NCI-H460 lung

ClCc1ccc(-c2ccc(Cn3cnc4nc(Cl)nc(Cl)c43)cc2)cc1
GI50 (NCI-H226 lung): 13.8 µM | TGI (NCI-H226 lung): 26.7 µM | GI50 (HOP-62 NSCLC): 13.5 µM | TGI (HOP-62 NSCLC): 48.8 µM | GI50 (SNB-75 CNS): 4.5 µM | TGI (SNB-75 CNS): 15.2 µM | GI50 (HL-60(TB) leukemia): 12.3 µM | TGI (HL-60(TB) leukemia): > 100 µM | GI50 (NCI/ADR-RES ovarian): 3.97 µM | TGI (NCI/ADR-RES ovarian): 70.4 µM | GI50 (TK-10 renal): 6.88 µM | TGI (TK-10 renal): 20.4 µM | GI50 (MDA-MB-435): 5.25 µM | TGI (MDA-MB-435): 20.7 µM | GI50 (MDA-MB-231 breast): 11.1 µM | TGI (MDA-MB-231 breast): 23.7 µM | GI50 (OVCAR-5 ovarian): 19.6 µM | TGI (OVCAR-5 ovarian): 36 µM | GI50 (UACC-62 melanoma): 4.13 µM | TGI (UACC-62 melanoma): 14.4 µM | GI50 (SK-MEL-2 melanoma): 7.9 µM | TGI (SK-MEL-2 melanoma): 21.2 µM | GI50 (HS 578T breast): 5.81 µM | TGI (HS 578T breast): 40.7 µM | GI50 (SF-295 CNS): 14.2 µM | TGI (SF-295 CNS): 30.7 µM | GI50 (DU-145 prostate): 2.71 µM | TGI (DU-145 prostate): 7.6 µM | GI50 (HCT-116 colon): 3.85 µM | TGI (HCT-116 colon): 13.4 µM | GI50 (NCI-H522 lung): 12 µM | TGI (NCI-H522 lung): 36.4 µM | GI50 (COLO 205 colon): 4.02 µM | TGI (COLO 205 colon): 18.2 µM | GI50 (CAKI-1 renal): 2.21 µM | TGI (CAKI-1 renal): 4.99 µM | GI50 (HCC-2998 colon): 4.63 µM | TGI (HCC-2998 colon): 21.7 µM | GI50 (SW-620 colon): 2.22 µM | TGI (SW-620 colon): 4.75 µM | GI50 (SF-268 CNS): 3.6 µM | TGI (SF-268 CNS): 15.2 µM | GI50 (SR leukemia): 2.39 µM | TGI (SR leukemia): 7.46 µM | GI50 (MALME-3M melanoma): 3.33 µM | TGI (MALME-3M melanoma): 7.88 µM | GI50 (CCRF-CEM leukemia): 2.16 µM | TGI (CCRF-CEM leukemia): 4.86 µM | GI50 (IGROV1 ovarian): 14.3 µM | TGI (IGROV1 ovarian): 34.8 µM | GI50 (786-0 renal): 17.1 µM | TGI (786-0 renal): 31.7 µM | GI50 (M14 melanoma): 18.7 µM | TGI (M14 melanoma): 36.8 µM | GI50 (U251 CNS): 3.82 µM | TGI (U251 CNS): 11.3 µM | GI50 (NCI-H23 lung): 7.32 µM | TGI (NCI-H23 lung): 24.3 µM | GI50 (KM12 colon): 3.69 µM | TGI (KM12 colon): 12.8 µM | GI50 (SF-539 CNS): 2.3 µM | TGI (SF-539 CNS): 5.06 µM | GI50 (HT29 colon): 3.54 µM | TGI (HT29 colon): 12.4 µM | GI50 (UO-31 renal): 16.7 µM | TGI (UO-31 renal): 34.1 µM | GI50 (K-562 leukemia): 5.59 µM | TGI (K-562 leukemia): 44.1 µM | GI50 (OVCAR-8 ovarian): 2.41 µM | TGI (OVCAR-8 ovarian): 6.52 µM | GI50 (HCT-15 colon): 3.9 µM | TGI (HCT-15 colon): 13.9 µM | GI50 (MCF7 breast): 3.18 µM | TGI (MCF7 breast): 10.8 µM | GI50 (SN12C renal): 3.06 µM | TGI (SN12C renal): 12.3 µM | GI50 (SK-MEL-5 melanoma): 4.55 µM | TGI (SK-MEL-5 melanoma): 16.5 µM | GI50 (UACC-257 melanoma): 3.04 µM | TGI (UACC-257 melanoma): 9.88 µM | GI50 (A498 renal): 17.7 µM | TGI (A498 renal): 32 µM | GI50 (MOLT-4 leukemia): 3.36 µM | TGI (MOLT-4 leukemia): 10.9 µM | GI50 (RXF 393 renal): 2.5 µM | TGI (RXF 393 renal): 5 µM | GI50 (BT-549 breast): 2.72 µM | TGI (BT-549 breast): 6.59 µM | GI50 (SK-OV-3 ovarian): 19.7 µM | TGI (SK-OV-3 ovarian): 33.9 µM | GI50 (OVCAR-3 ovarian): 2.19 µM | TGI (OVCAR-3 ovarian): 4.59 µM | GI50 (T-47D breast): 7.03 µM | TGI (T-47D breast): 49.3 µM | GI50 (EKVX NSCLC): 15.9 µM | TGI (EKVX NSCLC): 29.5 µM | GI50 (ACHN renal): 5.36 µM | TGI (ACHN renal): 17 µM | GI50 (RPMI-8226 leukemia): 3.81 µM | TGI (RPMI-8226 leukemia): 27.9 µM | GI50 (SNB-19 CNS): 4.58 µM | TGI (SNB-19 CNS): 15.2 µM | GI50 (HOP-92 NSCLC): 3.82 µM | TGI (HOP-92 NSCLC): 8.78 µM | GI50 (OVCAR-4 ovarian): 15 µM | TGI (OVCAR-4 ovarian): 28.3 µM | GI50 (SK-MEL-28 melanoma): 2.38 µM | TGI (SK-MEL-28 melanoma): 5.16 µM | GI50 (LOX IMVI melanoma): 1.86 µM | TGI (LOX IMVI melanoma): 3.3 µM | GI50 (PC-3 prostate): 4.71 µM | TGI (PC-3 prostate): 16.7 µM | GI50 (A549 NSCLC): 3.53 µM | TGI (A549 NSCLC): > 100 µM | GI50 (NCI-H460 lung): 7.85 µM | TGI (NCI-H460 lung): 24.6 µM
